Experiment: xn = mol fraction of the nth substance listed
Settings: Liquid; for speed of sound: 100 kPa, Linear variable-path acoustic interferometer; for viscosity / mass density: 101.3 kPa; for viscosity: Capillary tube (Ostwald / Ubbelohde) method; for mass density: Pycnometric method

NC=O [formamide] + CC#N
Settings	mass density, 298.15 K [kg/m3]	mass density, 308.15 K [kg/m3]	mass density, 318.15 K [kg/m3]	speed of sound, 298.15 K [m/s]	viscosity, 298.15 K [mPa·s]	viscosity, 308.15 K [mPa·s]	viscosity, 318.15 K [mPa·s]
x1 = 0.0919	803.8	794.9	785.6	1277.7	0.402	0.366	0.339
x1 = 0.1856	832.8	824.1	815.8	1299.6	0.485	0.432	0.396
x1 = 0.2809	863.4	855.1	847.4	1322.8	0.593	0.522	0.472
x1 = 0.3779	895.8	887.4	879.9	1349.6	0.733	0.635	0.565
x1 = 0.4768	929.2	921.2	914	1380.8	0.921	0.786	0.687
x1 = 0.5775	965.2	956.6	950.7	1412.8	1.168	0.978	0.847
x1 = 0.6802	1002.9	994.4	989.4	1449	1.507	1.239	1.046
x1 = 0.7847	1042.6	1034.7	1029.3	1488.8	1.945	1.569	1.295
x1 = 0.8913	1085.1	1076.9	1071.6	1529.8	2.54	1.999	1.615
x1 = 1	1129.2	1120.5	1111.1	1591.3	3.302	2.542	2.001

NC=O [formamide] + C[S+](C)[O-]
Settings	mass density, 298.15 K [kg/m3]	mass density, 308.15 K [kg/m3]	mass density, 318.15 K [kg/m3]	speed of sound, 298.15 K [m/s]	viscosity, 298.15 K [mPa·s]	viscosity, 308.15 K [mPa·s]	viscosity, 318.15 K [mPa·s]
x1 = 0.1616	1099.3	1090.7	1082.7	1480.1	2.457	1.859	1.64
x1 = 0.3025	1102.8	1094.9	1087.3	1480.6	2.868	2.135	1.823
x1 = 0.4264	1106.3	1098.5	1090.9	1483.9	3.214	2.365	1.968
x1 = 0.5363	1109.5	1101.6	1093.9	1492.3	3.468	2.52	2.059
x1 = 0.6343	1112.6	1104.6	1096.7	1502.9	3.608	2.621	2.112
x1 = 0.7224	1115.8	1107.6	1099.5	1512.7	3.652	2.653	2.118
x1 = 0.8019	1119.1	1110.7	1102.3	1526.4	3.626	2.639	2.083
x1 = 0.874	1122.5	1113.9	1105.3	1543.7	3.54	2.613	2.054
x1 = 0.9398	1125.8	1117.2	1108.2	1561.2	3.426	2.571	2.021
x1 = 1	1129.2	1120.5	1111.1	1591.3	3.302	2.542	2.001
